Data on three molecules can be found in paper PMC9546217, “Exploring novel nitrofuranyl sulfonohydrazides as anti‐Leishmania and anti‐cancer agents: Synthesis, in vitro efficacy and hit identification” (Chemical Biology & Drug Design, 2022).

Data set [1] in a line: Basal cytotoxicity, resazurin assay. The note with it: African green monkey. As to the method:
The assay method is available in the Supinfo S1.
African green monkey kidney epithelial (Vero) cells (Cellonex, South Africa) were cultured and the basal cytotoxicity of the synthesized compounds with antileishmanial and/or anticancer activity was evaluated using the resazurin assay, as described in Mangwegape et al. ^4 Emetine served as the standard cytotoxic drug. Further use of reference drugs, controls, data analysis, calculations and IC50 determinations were identical to that of the antileishmanial assay.
On the technique in general: Alamar Blue is a resazurin reagent that responds to reducing activity.

For data set [2], the system named is L. major strain IR‐173 promastigotes. As to the kind of experiment: Antipromastigote assay (resazurin). The note with it: Leishmania major; L. major IR‐173; read-out: Antileishmanial activity, IC50 ± SD, Promastigote. The class given is cell-based.
Data set [3] concerns L. donovani strain 1S promastigotes. The data set can be described thus: Antipromastigote assay (resazurin). The class given is cell-based. The following applies: Leishmania donovani; L. donovani 1S; read-out: 1S IC50 ± SD, Promastigote.
The subject of data set [4] is L. donovani strain 9515 promastigotes. As to the kind of experiment: Antipromastigote assay (resazurin). Type of data set: cell-based. The note with it: Leishmania donovani; L. donovani 9515; read-out: 9515 IC50 ± SD, Promastigote.
In data set [5] the test system is L. donovani strain 1S amastigotes. The data set can be described thus: Anti-amastigote assay (intramacrophage, THP-1 host, resazurin). Type of data set: cell-based. The following applies: for IC50: Leishmania donovani, THP-1, L. donovani 1S, read-out: 1S IC50 ± SD, Amastigote.
In data set [6] the test system is L. donovani strain 9515 amastigotes. Described as above. The class given is cell-based. The following applies: for Selectivity index SI6: L. donovani 9515: IC50 THP‐1/IC50 amastigote; for Selectivity index SI5: L. donovani 9515: IC50 Vero/IC50 amastigote; for IC50: Leishmania donovani, THP-1, L. donovani 9515, read-out: 9515 IC50 ± SD, Amastigote.
For data set [7], the system named is L. major strain IR‐173 amastigotes. The data set is described as above. Type of data set: cell-based. The note with it: Leishmania major, THP-1, L. major IR‐173; read-out: Antileishmanial activity, IC50 ± SD, Amastigote.
Data set [8] in a line: Cytotoxicity on differentiated host THP-1 macrophages, resazurin assay. Type of data set: cell-based, human. The following applies: human, PMA-differentiated THP-1 macrophages, read-out: Cytotoxicity, IC50 ± SD, THP‐1. As to the method:
Duplicate 96‐well plates (for respective anti‐amastigote and cytotoxicity assays) were seeded with 200 μl of a 2.5 × 10^5 cells/ml suspension treated with 25 ng/ml phorbol 12‐myristate 13‐acetate (PMA), followed by 48‐h incubation to promote differentiation into adherent macrophages.
Cytotoxicity of the compounds on the differentiated host THP-1 cells were also evaluated. As mentioned, duplicate plates of differentiated THP-1 cells were prepared during the anti-amastigote assay. These plates were incubated for 72 hours to differentiate, instead of replacing the growth medium with parasite-containing medium after 48 hours. […] Blanks were growth medium without cells. The treated plates were incubated for 72 hours, followed by the addition of 50 μL of resazurin solution (0.01% in PBS) to each well and 24-hour incubation.

A value given as a limit tells only on which side of the number the result lay.

In general, IC50 refers to the midpoint of a concentration-inhibition curve. Regarding `O=[N+]([O-])c1ccc(/C=N/NS(=O)(=O)c2cccc3c2OCCO3)o1` [2l, (E)-N'-[(5-Nitrofuran-2-yl)methylene]-2,3-dihydrobenzo[b][1,4]dioxine-5-sulfonohydrazide], the IC50 is 41.2 ± 3.3 µM in data set [1] (Vero cells (kidney epithelial)); 8.1 ± 0.03 µM in data set [2]; 9.24 ± 1.32 µM in data set [3]; 7.25 ± 0.11 µM in data set [4]; 6.36 µM in data set [5]; 7.85 ± 0.21 µM in data set [6]. Moreover, the IC50 in data set [7] is above 10 µM. Further, the “Selectivity index SI4” value in data set [5] (L. donovani 1S: IC50 THP‐1/IC50 amastigote) is given as above 16. Also, the “Selectivity index SI3” value in data set [5] (L. donovani 1S: IC50 Vero/IC50 amastigote) was 6. Further, in data set [5] (L. donovani 1S: IC50 promastigote/IC50 amastigote), the “Specificity index SpI2” value stood at 1.45. In data set [6], the “Selectivity index SI6” value is above 13. Besides, in data set [6], the “Selectivity index SI5” value came out at 5. The “Specificity index SpI3” value in data set [6] (L. donovani 9515: IC50 promastigote/IC50 amastigote) was found to be 0.92. The IC50 at 72 h in data set [8] was above 100 µM.

Regarding `O=C1CN(/N=C/c2ccc([N+](=O)[O-])o2)C(=O)N1` [NFT, nitrofurantoin, reference compound], the IC50 is above 100 µM in data set [1]; above 10 µM in data set [2]; above 10 µM in data set [3]; above 10 µM in data set [4]; above 10 µM in data set [5]; 8.56 ± 1.95 µM in data set [6]. The IC50 in data set [7] was above 10 µM. Also, the IC50 at 72 h in data set [8] is above 100 µM.

On to `O=C(N/N=C/c1ccc([N+](=O)[O-])o1)c1ccc(O)cc1` [NFX, Nifuroxazide, reference compound], for which the IC50 in data set [1] is above 100 µM; in data set [2], above 10 µM; in data set [3] it was above 10 µM; in data set [4] it was above 10 µM; in data set [5], above 10 µM; in data set [7], above 10 µM. For the same molecule, the “Selectivity index SI6” value in data set [6] is given as above 14. In data set [6], the “Selectivity index SI5” value is above 14. For the same molecule, the IC50 at 72 h in data set [8] was above 100 µM.
